Reference: ChEMBL document CHEMBL5678818, “Discovery of potent SOS1 inhibitors that block RAS activation via disruption of the RAS-SOS1 interaction” (Proc Natl Acad Sci U S A, 2019)

Tests used:
[1] = system: ALK tyrosine kinase receptor (Homo sapiens), Q9UM73 [L1196M]; experiment: Inhibition of ALK L1196M mutant (unknown origin) assessed as residual activity at 1000 nM by KINOMEscan analysis relative to control
[2] = system: Phosphatidylinositol 4,5-bisphosphate 3-kinase catalytic subunit alpha isoform (Homo sapiens), P42336 [H1047Y]; experiment: Inhibition of PIK3CA H1047Y mutant (unknown origin) assessed as residual activity at 1000 nM by KINOMEscan analysis relative to control
[3] = target: T1, Serine/threonine-protein kinase LATS1 (Homo sapiens) (UniProt O95835); experiment: Inhibition of LATS1 (unknown origin) assessed as residual activity at 1000 nM by KINOMEscan analysis relative to control
T1 sequence (whole entry): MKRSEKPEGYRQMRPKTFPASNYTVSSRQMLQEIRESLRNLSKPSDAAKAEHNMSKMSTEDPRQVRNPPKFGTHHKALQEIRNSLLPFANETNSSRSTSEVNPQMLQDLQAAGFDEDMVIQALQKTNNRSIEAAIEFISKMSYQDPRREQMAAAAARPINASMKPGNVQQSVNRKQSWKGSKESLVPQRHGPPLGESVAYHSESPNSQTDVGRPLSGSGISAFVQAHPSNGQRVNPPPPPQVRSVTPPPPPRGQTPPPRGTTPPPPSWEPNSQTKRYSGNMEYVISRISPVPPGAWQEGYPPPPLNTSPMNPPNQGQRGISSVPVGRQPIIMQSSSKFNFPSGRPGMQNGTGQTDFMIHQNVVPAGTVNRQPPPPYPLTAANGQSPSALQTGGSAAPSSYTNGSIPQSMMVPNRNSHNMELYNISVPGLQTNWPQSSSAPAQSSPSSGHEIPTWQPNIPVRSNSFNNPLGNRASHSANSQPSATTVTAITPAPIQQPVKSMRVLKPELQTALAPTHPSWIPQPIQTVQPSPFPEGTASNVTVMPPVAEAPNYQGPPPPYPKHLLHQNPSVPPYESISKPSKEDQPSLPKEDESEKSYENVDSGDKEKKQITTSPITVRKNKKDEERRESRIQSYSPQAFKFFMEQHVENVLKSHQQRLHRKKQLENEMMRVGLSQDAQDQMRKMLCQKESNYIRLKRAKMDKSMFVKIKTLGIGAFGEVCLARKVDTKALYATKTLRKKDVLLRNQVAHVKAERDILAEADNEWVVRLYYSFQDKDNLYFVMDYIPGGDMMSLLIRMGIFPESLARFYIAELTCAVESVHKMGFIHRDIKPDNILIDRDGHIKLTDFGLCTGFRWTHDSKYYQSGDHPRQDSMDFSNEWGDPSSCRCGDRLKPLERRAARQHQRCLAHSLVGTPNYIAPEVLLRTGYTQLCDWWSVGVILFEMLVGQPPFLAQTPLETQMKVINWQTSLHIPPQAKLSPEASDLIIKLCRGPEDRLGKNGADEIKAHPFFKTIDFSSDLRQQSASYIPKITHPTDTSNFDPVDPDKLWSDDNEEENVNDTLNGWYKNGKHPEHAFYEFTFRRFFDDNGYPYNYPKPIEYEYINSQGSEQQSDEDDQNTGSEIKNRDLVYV

[4] = target: T2, Phosphatidylinositol 4,5-bisphosphate 3-kinase catalytic subunit delta isoform (Homo sapiens) (UniProt O00329); experiment: Inhibition of PIK3CD (unknown origin) assessed as residual activity at 1000 nM by KINOMEscan analysis relative to control
T2 sequence (whole entry): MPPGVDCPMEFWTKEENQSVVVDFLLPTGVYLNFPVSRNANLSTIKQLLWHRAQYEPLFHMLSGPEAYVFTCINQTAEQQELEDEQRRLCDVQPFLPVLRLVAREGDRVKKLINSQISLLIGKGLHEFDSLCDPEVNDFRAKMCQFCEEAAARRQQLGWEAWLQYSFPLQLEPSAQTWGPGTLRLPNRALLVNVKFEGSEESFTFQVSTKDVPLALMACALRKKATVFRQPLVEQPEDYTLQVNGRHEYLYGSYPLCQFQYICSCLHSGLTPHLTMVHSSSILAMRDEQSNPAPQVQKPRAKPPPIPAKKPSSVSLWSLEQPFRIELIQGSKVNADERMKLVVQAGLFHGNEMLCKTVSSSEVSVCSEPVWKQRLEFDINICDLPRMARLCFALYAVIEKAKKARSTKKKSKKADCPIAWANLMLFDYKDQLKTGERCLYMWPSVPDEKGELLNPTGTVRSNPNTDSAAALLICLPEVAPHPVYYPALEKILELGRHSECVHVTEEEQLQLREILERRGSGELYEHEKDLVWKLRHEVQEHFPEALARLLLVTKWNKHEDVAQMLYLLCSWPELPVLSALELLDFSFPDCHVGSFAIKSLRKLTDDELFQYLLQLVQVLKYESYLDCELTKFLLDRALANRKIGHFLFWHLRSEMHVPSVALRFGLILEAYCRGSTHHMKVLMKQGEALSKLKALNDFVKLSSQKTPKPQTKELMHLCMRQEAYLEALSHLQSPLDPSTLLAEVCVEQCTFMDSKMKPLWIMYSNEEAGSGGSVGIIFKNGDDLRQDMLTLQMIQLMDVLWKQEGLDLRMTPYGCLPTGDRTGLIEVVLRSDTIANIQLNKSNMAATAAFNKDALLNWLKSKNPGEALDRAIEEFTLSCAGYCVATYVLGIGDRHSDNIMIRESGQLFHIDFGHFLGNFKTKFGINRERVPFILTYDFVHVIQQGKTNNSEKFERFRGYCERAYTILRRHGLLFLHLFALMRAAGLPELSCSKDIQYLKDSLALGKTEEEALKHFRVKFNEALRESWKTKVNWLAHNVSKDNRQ

[5] = target: Vascular endothelial growth factor receptor 1 (Homo sapiens) (UniProt P17948); experiment: Inhibition of FLT1 (unknown origin) assessed as residual activity at 1000 nM by KINOMEscan analysis relative to control
[6] = target: Serine/threonine-protein kinase pim-1 (Homo sapiens) (UniProt P11309); experiment: Inhibition of PIM1 (unknown origin) assessed as residual activity at 1000 nM by KINOMEscan analysis relative to control
[7] = target: Cyclin-dependent kinase 2 (Homo sapiens) (UniProt P24941); experiment: Inhibition of CDK2 (unknown origin) assessed as residual activity at 1000 nM by KINOMEscan analysis relative to control
[8] = target: BDNF/NT-3 growth factors receptor (Homo sapiens) (UniProt Q16620); experiment: Inhibition of TRKB (unknown origin) assessed as residual activity at 1000 nM by KINOMEscan analysis relative to control
[9] = target: Serine/threonine-protein kinase Nek4 (Homo sapiens) (UniProt P51957); experiment: Inhibition of NEK4 (unknown origin) assessed as residual activity at 1000 nM by KINOMEscan analysis relative to control
[10] = target: Calcium/calmodulin-dependent protein kinase type II subunit delta (Homo sapiens) (UniProt Q13557); experiment: Inhibition of CAMK2D (unknown origin) assessed as residual activity at 1000 nM by KINOMEscan analysis relative to control
Sequence of Calcium/calmodulin-dependent protein kinase type II subunit delta (Homo sapiens) (Q13557 whole entry): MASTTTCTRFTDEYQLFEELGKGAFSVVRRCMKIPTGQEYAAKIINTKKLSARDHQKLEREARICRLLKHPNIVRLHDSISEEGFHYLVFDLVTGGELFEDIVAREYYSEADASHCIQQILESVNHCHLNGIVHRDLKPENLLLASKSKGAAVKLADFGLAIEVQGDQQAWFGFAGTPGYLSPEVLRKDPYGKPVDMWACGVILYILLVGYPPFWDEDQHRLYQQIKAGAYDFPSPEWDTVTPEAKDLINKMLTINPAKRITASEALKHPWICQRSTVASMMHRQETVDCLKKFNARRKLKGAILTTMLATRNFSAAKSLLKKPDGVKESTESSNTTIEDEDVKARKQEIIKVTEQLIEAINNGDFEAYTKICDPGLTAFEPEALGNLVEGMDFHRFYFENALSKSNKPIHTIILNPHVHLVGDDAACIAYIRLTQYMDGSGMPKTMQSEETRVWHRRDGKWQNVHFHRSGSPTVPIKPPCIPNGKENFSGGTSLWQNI

Sequence of BDNF/NT-3 growth factors receptor (Homo sapiens) (Q16620 32-822 limits assumed): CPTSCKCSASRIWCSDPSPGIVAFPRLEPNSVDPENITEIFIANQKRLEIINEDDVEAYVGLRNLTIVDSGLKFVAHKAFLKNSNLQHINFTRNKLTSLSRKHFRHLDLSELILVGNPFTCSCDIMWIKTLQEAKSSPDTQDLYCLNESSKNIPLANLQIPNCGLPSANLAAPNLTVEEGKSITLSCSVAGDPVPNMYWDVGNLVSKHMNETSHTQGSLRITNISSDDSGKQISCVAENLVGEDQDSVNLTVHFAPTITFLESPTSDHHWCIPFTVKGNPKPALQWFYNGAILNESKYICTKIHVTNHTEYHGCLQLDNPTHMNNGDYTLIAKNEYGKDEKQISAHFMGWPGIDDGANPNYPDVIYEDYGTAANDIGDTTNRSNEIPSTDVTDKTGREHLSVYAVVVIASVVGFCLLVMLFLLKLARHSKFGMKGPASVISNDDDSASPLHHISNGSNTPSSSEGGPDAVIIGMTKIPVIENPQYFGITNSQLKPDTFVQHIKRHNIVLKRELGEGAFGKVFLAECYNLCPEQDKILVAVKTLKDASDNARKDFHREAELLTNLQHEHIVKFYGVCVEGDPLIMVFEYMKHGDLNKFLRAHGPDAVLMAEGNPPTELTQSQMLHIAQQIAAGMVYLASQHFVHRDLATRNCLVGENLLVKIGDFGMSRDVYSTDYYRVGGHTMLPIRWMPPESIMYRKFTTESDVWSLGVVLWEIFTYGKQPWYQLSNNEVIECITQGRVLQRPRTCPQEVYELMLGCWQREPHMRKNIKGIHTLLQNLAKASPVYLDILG
Sequence of Serine/threonine-protein kinase Nek4 (Homo sapiens) (P51957 whole entry, looked up): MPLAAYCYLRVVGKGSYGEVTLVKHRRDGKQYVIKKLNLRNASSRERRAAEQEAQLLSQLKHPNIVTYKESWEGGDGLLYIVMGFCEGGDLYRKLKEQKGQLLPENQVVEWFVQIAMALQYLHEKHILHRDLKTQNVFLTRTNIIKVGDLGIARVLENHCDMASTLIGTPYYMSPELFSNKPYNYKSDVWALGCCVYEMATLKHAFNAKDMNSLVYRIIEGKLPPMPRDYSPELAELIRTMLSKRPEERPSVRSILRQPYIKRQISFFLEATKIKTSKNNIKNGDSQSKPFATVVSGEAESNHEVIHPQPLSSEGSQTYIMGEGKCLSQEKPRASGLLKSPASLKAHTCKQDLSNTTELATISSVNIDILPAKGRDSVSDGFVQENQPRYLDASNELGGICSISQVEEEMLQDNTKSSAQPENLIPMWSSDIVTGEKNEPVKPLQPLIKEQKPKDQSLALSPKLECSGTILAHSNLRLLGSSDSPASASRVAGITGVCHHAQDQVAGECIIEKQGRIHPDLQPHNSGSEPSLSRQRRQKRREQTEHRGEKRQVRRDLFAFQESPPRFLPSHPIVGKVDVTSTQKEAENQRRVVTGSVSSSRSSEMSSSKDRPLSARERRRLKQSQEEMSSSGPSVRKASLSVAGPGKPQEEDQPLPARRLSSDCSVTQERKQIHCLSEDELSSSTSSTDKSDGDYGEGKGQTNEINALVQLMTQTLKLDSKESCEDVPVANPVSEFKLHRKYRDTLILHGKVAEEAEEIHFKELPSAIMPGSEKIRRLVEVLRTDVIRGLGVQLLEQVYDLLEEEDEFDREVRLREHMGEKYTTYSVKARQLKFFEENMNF
Sequence of Serine/threonine-protein kinase pim-1 (Homo sapiens) (P11309 whole entry, looked up): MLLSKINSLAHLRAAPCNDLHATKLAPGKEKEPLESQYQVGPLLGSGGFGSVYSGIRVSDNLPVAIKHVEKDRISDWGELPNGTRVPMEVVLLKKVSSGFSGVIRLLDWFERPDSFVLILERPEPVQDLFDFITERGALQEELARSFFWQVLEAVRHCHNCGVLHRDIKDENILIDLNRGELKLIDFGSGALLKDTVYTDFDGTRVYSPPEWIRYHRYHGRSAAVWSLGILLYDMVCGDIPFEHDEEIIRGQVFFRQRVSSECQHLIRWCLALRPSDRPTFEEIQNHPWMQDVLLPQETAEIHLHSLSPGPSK
Sequence of ALK tyrosine kinase receptor (Homo sapiens), Q9UM73 [L1196M] (Q9UM73 whole entry L1196M, looked up, canonical isoform): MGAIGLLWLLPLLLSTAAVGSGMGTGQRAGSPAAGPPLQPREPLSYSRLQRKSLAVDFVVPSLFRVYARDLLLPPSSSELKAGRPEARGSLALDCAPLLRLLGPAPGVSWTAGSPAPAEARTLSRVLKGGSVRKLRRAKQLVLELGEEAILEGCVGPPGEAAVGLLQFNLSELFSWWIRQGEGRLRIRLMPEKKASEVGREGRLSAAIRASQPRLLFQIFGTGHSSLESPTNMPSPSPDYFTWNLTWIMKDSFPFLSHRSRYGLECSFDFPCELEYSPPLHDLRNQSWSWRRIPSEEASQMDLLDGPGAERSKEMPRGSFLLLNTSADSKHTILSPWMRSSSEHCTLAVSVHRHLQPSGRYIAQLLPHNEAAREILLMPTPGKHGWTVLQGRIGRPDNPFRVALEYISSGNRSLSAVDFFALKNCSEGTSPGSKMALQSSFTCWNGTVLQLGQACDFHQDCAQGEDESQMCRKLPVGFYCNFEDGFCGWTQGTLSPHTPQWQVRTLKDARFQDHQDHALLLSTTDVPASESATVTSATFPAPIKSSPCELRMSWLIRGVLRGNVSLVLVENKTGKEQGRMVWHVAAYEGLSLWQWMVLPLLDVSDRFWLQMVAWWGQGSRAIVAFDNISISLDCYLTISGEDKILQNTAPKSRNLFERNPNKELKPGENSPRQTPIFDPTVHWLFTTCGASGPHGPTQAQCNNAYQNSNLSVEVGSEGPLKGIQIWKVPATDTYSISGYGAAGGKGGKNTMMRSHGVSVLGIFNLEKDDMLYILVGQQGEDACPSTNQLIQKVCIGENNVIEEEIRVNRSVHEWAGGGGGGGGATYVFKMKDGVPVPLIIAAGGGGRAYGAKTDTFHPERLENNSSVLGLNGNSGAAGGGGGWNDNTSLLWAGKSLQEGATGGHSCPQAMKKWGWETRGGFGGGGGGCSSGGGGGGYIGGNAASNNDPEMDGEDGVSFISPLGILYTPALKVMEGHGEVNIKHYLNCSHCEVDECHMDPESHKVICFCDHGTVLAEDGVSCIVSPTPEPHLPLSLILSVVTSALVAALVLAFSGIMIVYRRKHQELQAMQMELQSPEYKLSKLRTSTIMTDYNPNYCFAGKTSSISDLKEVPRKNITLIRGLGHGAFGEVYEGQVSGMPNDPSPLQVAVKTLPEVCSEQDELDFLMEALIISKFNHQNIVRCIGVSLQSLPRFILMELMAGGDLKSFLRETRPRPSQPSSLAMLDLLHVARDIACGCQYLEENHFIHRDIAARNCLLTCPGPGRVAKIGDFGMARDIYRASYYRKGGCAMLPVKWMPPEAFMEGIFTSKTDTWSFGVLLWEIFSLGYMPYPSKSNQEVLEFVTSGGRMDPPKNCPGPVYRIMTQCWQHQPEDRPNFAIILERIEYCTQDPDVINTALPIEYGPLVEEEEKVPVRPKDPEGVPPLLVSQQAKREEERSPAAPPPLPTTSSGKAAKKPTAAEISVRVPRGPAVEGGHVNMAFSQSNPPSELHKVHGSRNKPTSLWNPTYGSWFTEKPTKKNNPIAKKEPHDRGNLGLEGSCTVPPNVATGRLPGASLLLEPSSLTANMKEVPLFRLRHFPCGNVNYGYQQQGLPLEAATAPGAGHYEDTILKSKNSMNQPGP

Compound	Activity [1] [%]	Activity [2] [%]	Activity [3] [%]	Activity [4] [%]	Activity [5] [%]	Activity [6] [%]	Activity [7] [%]	Activity [8] [%]	Activity [9] [%]	Activity [10] [%]
COc1cc2nc(C)nc(N[C@H](C)c3cccc(-c4cn[nH]c4)c3)c2cc1OC	67	63	98	96	71	79	100	98	81	100
COc1cc2ncnc(N[C@H](C)c3cccc4ccccc34)c2cc1OC	80	89	100	68	96	98	100	100	90	100
